Measured values as given in patent publication US8153689B2, “Pleuromutilin derivatives for the treatment of diseases mediated by microbes” (Nabriva Therapeutics AG, priority 2007, dated 2012).

System: primary human hepatocytes
Assay: Metabolic stability in cryopreserved primary human hepatocytes
Type: in vitro ADME
Details: 4 h incubation with human hepatocytes, compound concentration 5 μg/mL, 37° C., LC/MS
Method: The metabolic stability for compounds of the present invention was determined by using cryopreserved primary human hepatocytes. 1×10^6 cells/mL were incubated in the absence and the presence of 5 and 25 μg/mL of the test compounds at 37° C., 5% CO2 for 4 hours. To evaluate the in vitro degradation under assay conditions, a sample of each test compound was incubated also in the absence of hepatocytes. The incubation was stopped by freezing the reaction mixture. After ultrafiltration and washing of the filter with acetonitrile, the sample solution was analyzed for parent compound disappearance or metabolite appearance using LC/MS (ion trap). The metabolic stability value corresponds to the detected parent compound in % after incubation.

## 14-O-{[(1R, 3R)-3-Amino-cyclohexylsulfanyl]-acetyl}-mutilin hydrochloride and the (1S, 3S)diastereomer hydrochloride thereof
  metabolic stability value: detected parent compound in % after incubation: 24%

## C=CC1(C)CC(OC(=O)CSC2CC(N)CCC2O)C2(C)C(C)CCC3(CCC(=O)C32)C(C)C1O.Cl (mixture of isomers) [Example 2, 14-O-{[(1R, 2R, 5S)-5-Amino-2-hydroxy-cyclohexylsulfanyl]-acetyl}-mutilin hydrochloride+(1S, 2S, 5R)diastereomer hydrochloride]
  metabolic stability value: detected parent compound in % after incubation: 66%
